# Legend:
# [1] = tested on: HER3 mRNA; experiment: real-time qPCR of HER3 mRNA; format: cell-based, human; conditions: for HER3 mRNA/protein or pHER3: data not shown
# Method: FIG. 12B depicts a bar chart of timed HER3 mRNA transcription in BT474 cells which were treated with 2 μM 5J8, 20 μM LY294002, and 50 nM rapamycin for 10 hours prior to RNA isolation and qPCR analysis with HER3-specific primers.
# [2] = tested on: HER3 mRNA; conditions: ovarian cancer cells; cited from earlier work
# [3] = tested on: HER3, pHER3^Y1289, pAKT^S473; experiment: immunohistochemistry of BT474 xenografts; format: in vivo, mice; conditions: day 28
# Method: FIG. 18B depicts photomicrographs of immunohistochemistry sections from formalin-fixed, paraffin-embedded tumor blocks. Xenografts were harvested on day 28, 1 hour after the last dose of lapatinib and/or compound A. Antibodies used were against HER3, pHER3^Y1289, and pAKT^S473. Photographs were taken at 400× magnification (scale bar: 50 μm).
# All tumor samples (collected within 1 hour of last treatment) were fixed in 10% neutral buffered formalin for 24 hours at room temperature, followed by dehydration and paraffin embedding. Immunostaining was done on 5-μm tissue sections. After deparaffinization in xylene and graded alcohols heat-induced antigen retrieval was performed in a pH 6.0 citrate buffer followed by incubation with 3% hydrogen peroxide for 20 minutes, with protein block (Dako) for 10 minutes, and finally with primary antibody overnight at 4° C. The Envision Visualization System (Dako, Carpinteria, Calif., USA) was used, followed by DAB as chromagen and counterstained with hematoxylin. Tumor sections were studied on a light microscope with an ocular magnification of 400 times. Average percentage and intensity of tumor cell staining was calculated as a histoscore (H-score) (as described in Goulding, H., et al. (1995), Hum. Pathol. 26:291-294, which is incorporated herein by reference in its entirety). An expert pathologist (MGK) scoring the sections was blinded to the type of treatment.
# Using immunohistochemistry (IHC), experiments were performed to examine pharmacodynamic biomarkers of target inactivation in xenografts after 28 days of treatment. […] Therefore, experiments were performed to quantify differences in pAKT^S473 expression in both cytoplasmic and nuclear compartments in xenograft sections.
# [4] = tested on: BT474 xenografts; experiment: BT474 xenograft experiments; format: in vivo, mice; conditions: trastuzumab 30 mg/kg twice-a-week i.p.; lapatinib 100 mg/kg daily; compound A 100 mg/kg daily gavage; 28 days
# Method: Tumor volumes were recorded twice-a-week. Each data point represents the mean tumor volume in mm^3±SE of 8 mice per type of treatment. CR=complete response to treatment.
# Animal experiments were approved by the Institutional Animal Care Committee of Vanderbilt University Medical Center (VUMC). Mice were housed in the accredited Animal Care Facility of the VUMC. A 17β-estradiol pellet (Innovative Research of America) was injected subcutaneously (s.c.) into each 6- to 7-week-old athymic female mice (Harlan Sprague Dawley, Inc.) the day before tumor cell injection. BT474 cells (3×10^6) mixed 1:1 with Matrigel (BD Biosciences) were injected s.c. into the right flank of each mouse. Tumor diameters were measured with calipers twice-a-week and volume in mm^3 calculated with the formula: volume=width^2×length/2. […] Mice were euthanized after 28 days of treatment.
# There was no significant drug-related toxicity in any of the treatment arms.
smiles,measurement,setting,value
O=C(NOCC1CC1)c1ccc(F)c(F)c1Nc1ccc(I)cc1Cl [CI-1040],HER3 mRNA/protein or pHER3,[1],did not upregulate HER3 mRNA/protein or pHER3
CS(=O)(=O)N1CCN(Cc2cc3nc(-c4cccc5[nH]ncc45)nc(N4CCOCC4)c3s2)CC1 [GDC-0941],HER3 mRNA downregulation by heregulin,[2],blocked downregulation of the HER3 mRNA
"CO[C@H]1C[C@@H]2CC[C@@H](C)[C@@](O)(O2)C(=O)C(=O)N2CCCC[C@H]2C(=O)O[C@H]([C@H](C)C[C@@H]2CC[C@@H](OCCO)[C@H](OC)C2)CC(=O)[C@H](C)/C=C(\C)[C@@H](O)[C@@H](OC)C(=O)[C@H](C)C[C@H](C)/C=C/C=C/C=C/1C [RAD001, everolimus]",HER3 mRNA/protein or pHER3,[1],did not upregulate HER3 mRNA/protein or pHER3
"CS(=O)(=O)CCNCc1ccc(-c2ccc3ncnc(Nc4ccc(OCc5cccc(F)c5)c(Cl)c4)c3c2)o1 [lapatinib, reference compound]",HER3 mRNA levels,"[1]; BT474, compound A 6 μM, lapatinib 1 μM, trastuzumab 10 μg/ml, 10 hours",markedly induced HER3 mRNA
same,pHER3 by IHC,[3],more effective than trastuzumab in reducing pHER3
same,"tumor growth, monotherapy",[4],significantly delayed tumor growth
